Source: ChEMBL document CHEMBL1156212, “Curcumin derivatives inhibit testicular 17beta-hydroxysteroid dehydrogenase 3” (Bioorg Med Chem Lett, 2010)
Activity calls are given as the source filed them. The calls are words filed in the database; no cut-off is given here.

Columns and labels:
[1] = biological target: T1, 17-beta-hydroxysteroid dehydrogenase type 3 (Rattus norvegicus) (UniProt O54939); test: Inhibition of 17beta-HSD3 in Sprague-Dawley rat laydig cells at 100 uM
T1 sequence (whole entry): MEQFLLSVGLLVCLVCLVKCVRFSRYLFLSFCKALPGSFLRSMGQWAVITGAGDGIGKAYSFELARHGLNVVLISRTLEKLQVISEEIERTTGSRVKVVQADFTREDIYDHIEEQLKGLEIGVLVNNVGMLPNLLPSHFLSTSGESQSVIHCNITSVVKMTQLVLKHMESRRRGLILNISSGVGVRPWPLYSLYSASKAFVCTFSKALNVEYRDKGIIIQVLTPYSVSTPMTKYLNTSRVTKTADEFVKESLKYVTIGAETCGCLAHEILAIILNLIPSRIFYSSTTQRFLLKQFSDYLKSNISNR

[2] = biological target: T2, 17-beta-hydroxysteroid dehydrogenase type 3 (Rattus norvegicus, UniProt O54939); test: Inhibition of 17beta-HSD3 in Sprague-Dawley rat testis microsomes
T2 sequence (O54939 whole entry): T1 sequence (whole entry)

[3] = biological target: T3, 17-beta-hydroxysteroid dehydrogenase type 3 (Homo sapiens) (UniProt P37058); test: Inhibition of 17beta-HSD3 in human testis microsomes at 100 uM
T3 sequence (whole entry): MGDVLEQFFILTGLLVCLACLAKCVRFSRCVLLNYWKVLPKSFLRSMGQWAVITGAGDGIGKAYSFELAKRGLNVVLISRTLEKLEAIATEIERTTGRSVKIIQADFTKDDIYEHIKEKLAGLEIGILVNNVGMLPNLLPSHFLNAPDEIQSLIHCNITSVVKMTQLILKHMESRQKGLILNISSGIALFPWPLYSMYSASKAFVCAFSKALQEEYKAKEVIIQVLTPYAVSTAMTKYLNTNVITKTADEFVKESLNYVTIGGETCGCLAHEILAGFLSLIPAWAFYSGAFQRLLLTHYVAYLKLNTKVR

[4] = biological target: T2, 17-beta-hydroxysteroid dehydrogenase type 3; test: Inhibition of 17beta-HSD3 in Sprague-Dawley rat laydig cells
[5] = biological target: T1, 17-beta-hydroxysteroid dehydrogenase type 3 (Rattus norvegicus); test: Inhibition of 17beta-HSD3 in Sprague-Dawley rat testis microsomes at 100 uM
[6] = biological target: T4, 17-beta-hydroxysteroid dehydrogenase type 3 (Homo sapiens, UniProt P37058); test: Inhibition of 17beta-HSD3 in human testis microsomes
T4 sequence (P37058 whole entry): T3 sequence (whole entry)

[7] = Inhibition of LH-stimulated testosterone production in Sprague-Dawley rat leydig cells at 10 uM after 18 hrs by tritium based radio immuno assay relative to control; type: functional; conditions: read-out: INH
[8] = biological target: T1, 17-beta-hydroxysteroid dehydrogenase type 3 (Rattus norvegicus); test: Uncompetitive inhibition of 17beta-HSD3 in Sprague-Dawley rat testis microsomes at 1 to 10 uM by Lineweaver-Burke plot analysis; conditions: Microsome
[9] = biological target: T3, 17-beta-hydroxysteroid dehydrogenase type 3 (Homo sapiens); conditions: Testis, Microsomes, 1 to 10 uM
Description: Uncompetitive inhibition of 17beta-HSD3 in human testis microsomes at 1 to 10 uM by Lineweaver-Burke plot analysis

[10] = biological target: T4, 17-beta-hydroxysteroid dehydrogenase type 3; test: Inhibition of 17beta-HSD3

Structure (SMILES) | inhibition [1] | inhibition [3] | inhibition [5] | other results
O=C1/C(=C/c2cccc(Br)c2)CC/C1=C\c1cccc(Br)c1 | 30% | 14% |  | IC50 [2]: 700 nM
O=C(/C=C/c1ccc(OC2CCCOC2)cc1)/C=C/c1ccc(OC2CCCOC2)cc1 (stereo unspecified) |  | 22% | 29% | IC50 [4]: 1300 nM
COc1cc(/C=C2\CC/C(=C\c3ccc(OC4CCCOC4)c(OC)c3)C2=O)ccc1OC1CCCOC1 (stereo unspecified) | inactive | inactive | inactive | 
COc1cc(/C=C2\CC/C(=C\c3cc(OC)c(OC)c(OC)c3)C2=O)cc(OC)c1OC | 11% | inactive | inactive | 
CCOc1ccc(/C=C2\CCC/C(=C\c3ccc(OCC)cc3)C2=O)cc1 | inactive | 13% | 16% | 
COc1cc(/C=C2\CC/C(=C\c3ccc(OCCCN(C)C)c(OC)c3)C2=O)ccc1OCCCN(C)C | 38% | 28% | 32% | 
CN(C)c1ccc(/C=C2\CCC/C(=C\c3ccc(N(C)C)cc3)C2=O)cc1 | 12% | 17% | 10% | 
CN(C)c1ccc(/C=C/C(=O)/C=C/c2ccc(N(C)C)cc2)cc1 | inactive |  | 15% | IC50 [6]: 2400 nM
COc1cc(/C=C2\CCC/C(=C\c3cc(OC)c(OC)c(OC)c3)C2=O)cc(OC)c1OC |  |  |  | IC50 [4]: > 100000 nM; IC50 [2]: 1800 nM; IC50 [6]: 100 nM
COc1cc(/C=C/C(=O)CC(=O)/C=C/c2ccc(O)c(OC)c2)ccc1O [CURCUMIN] |  |  |  | inhibition at 10 µM [7]: 64%; IC50 [4]: 9000 nM; IC50 [2]: 2300 nM; IC50 [6]: 67300 nM; inhibition [8]: Active; inhibition [9]: Active
O=C1/C(=C/c2ccc(F)cc2)CC/C1=C\c1ccc(F)cc1 | 14% | 11% | 15% | 
O=C1/C(=C/c2ccc(OC3CCCOC3)cc2)CC/C1=C\c1ccc(OC2CCCOC2)cc1 (stereo unspecified) | inactive | inactive | 13% | 
O=C1/C(=C/c2ccc(OC3CCCOC3)cc2)CCC/C1=C\c1ccc(OC2CCCOC2)cc1 (stereo unspecified) | 16% | inactive | 21% | 
CCOc1ccc(/C=C/C(=O)/C=C/c2ccc(OCC)cc2)cc1 |  | 16% | 16% | IC50 [4]: 70 nM
O=C1/C(=C/c2cccc(Br)c2)CCC/C1=C\c1cccc(Br)c1 | 25% | 15% | 40% | 
COc1cc(/C=C2\CCC/C(=C\c3ccc(OC4CCCOC4)c(OC)c3)C2=O)ccc1OC1CCCOC1 (stereo unspecified) | 26% | inactive | 27% | 
O=C1/C(=C/c2ccc(O)cc2)CC/C1=C\c1ccc(O)cc1 | 18% | 28% | 15% | 
CCOc1ccc(/C=C2\CC/C(=C\c3ccc(OCC)cc3)C2=O)cc1 | 14% | inactive | inactive | 
O=C1/C(=C/c2ccc(F)cc2)CCC/C1=C\c1ccc(F)cc1 | inactive | inactive | inactive | 
O=C(/C=C/c1ccc(F)cc1)/C=C/c1ccc(F)cc1 |  | 39% |  | IC50 [4]: 100 nM; IC50 [2]: 3300 nM
O=C1C=CC(=O)C(c2ccc(-c3ccccc3)cc2)=C1 |  |  |  | IC50 [6]: 2700 nM
COc1cc(/C=C/C(=O)/C=C/c2cc(OC)c(OC)c(OC)c2)cc(OC)c1OC | inactive | inactive | inactive | 
O=C(/C=C/c1ccc(O)cc1)/C=C/c1ccc(O)cc1 | 30% | 46% | 33% | 
O=C(/C=C/c1cccc(Br)c1)/C=C/c1cccc(Br)c1 | 20% |  |  | IC50 [2]: 8500 nM; IC50 [6]: 2700 nM
O=C1/C(=C/c2ccc(O)cc2)CCC/C1=C\c1ccc(O)cc1 | 13% | 38% | 34% | 
CN(C)c1ccc(/C=C2\CC/C(=C\c3ccc(N(C)C)cc3)C2=O)cc1 | inactive | inactive | inactive | 
C[C@]12CC[C@H](OCCc3ccccc3)CC1CC[C@@H]1[C@@H]2CC[C@]2(C)C(=O)CC[C@@H]12 (stereo partly specified) |  |  |  | IC50 [10]: 57 nM
COc1cc(/C=C/C(=O)/C=C/c2ccc(OC3CCCOC3)c(OC)c2)ccc1OC1CCCOC1 (stereo unspecified) | inactive | 20% | 35% | 
O=C1/C(=C/c2cccc(C(F)(F)F)c2F)CC/C1=C\c1cccc(C(F)(F)F)c1F | inactive | inactive | 23% | 
